Like-named read-outs stand apart in the source and are kept apart here.
How the values were obtained:
peak hNav1.5 = target: T1, peak hNav1.5 (Homo sapiens, UniProt Q14524); assay: Automated patch clamp, peak hNav1.5 current block; type: cell-based
T1 construct: expressed in transfected cells; host or cells: HEK293 or CHO, depending on site
Method: Peak current was measured during the depolarizing step to −15 mV. Leak current was measured after applying a saturating concentration of a blocker such as lidocaine (2 mM) at the end of each experiment to completely block hNav1.5 current.
(§1) Concentration-response relationships for each test article were independently investigated, i.e., each cell received only one test article, typically evaluating multiple concentrations in a cumulative fashion (lowest to highest concentrations). However, some platforms tested only one concentration per well. Each concentration response was based on a minimum of four concentrations, with a minimum of three wells used for each concentration. In cases of high variability, more cells per concentration were recorded. Prior to drug addition, cells received an addition of vehicle to measure non-test article-related effects such as addition artifacts. At the end of the experiment, a supramaximal concentration of a known inhibitory reference compound was applied to assess leak current and appropriate responsiveness of the test system.
(§2) The steady state current at each concentration was used to determine the concentration-response relationships. Mean concentration-response data were fitted to a standard sigmoidal four-parameter logistic equation (GraphPad Prism 7; GraphPad Inc., La Jolla, CA) of the form: Y=Bottom+(Top−Bottom)/(1+10^∧(LogIC50−X)∗HillSlope) where Y is the current inhibition (in % of pre-drug control), X is the logarithm of drug concentration, and IC50 is the drug concentration producing half-maximal current inhibition. Curve fitting was performed using the following constraints: Top = 100%, Bottom = 0%, Hill Slope <2. No curve fitting was performed in cases with an obvious lack of a concentration-dependent current inhibition and/or small effect size (approximately ≤20%).

late hNav1.5 = target: T2, late hNav1.5 (Homo sapiens, UniProt Q14524); assay: Automated patch clamp, late hNav1.5 current block (ATX-II activated); type: cell-based; conditions: for IC50: read-out: log IC50, late hNav1.5 inhibition (converted)
T2 construct: expressed in transfected cells; host or cells: HEK293 or CHO, depending on site
Method: However, all external solutions contained 30 nM ATX-II in order to activate late current. Late current was measured at its maximum during the repolarizing ramp.
as §1, §2

[1] = based on CiPA evaluations; cited from earlier work
hCav1.2 = hCav1.2 (Homo sapiens, UniProt Q13936); assay: Automated patch clamp, hCav1.2 current block; conditions: log IC50, half-maximal inhibitory concentration
[2] = site_platform s06_p4, 1.00E-05 mol/L
[3] = site_platform s06_p4, 3.00E-07 mol/L
[4] = site_platform s07_p6, 1.00E-05 mol/L
[5] = site_platform s07_p6, 3.00E-07 mol/L
[6] = site_platform s13_p2, 1.00E-05 mol/L
[7] = site_platform s13_p2, 3.00E-07 mol/L
[8] = site_platform s14_p1, 1.00E-05 mol/L
[9] = site_platform s14_p1, 3.00E-07 mol/L

T1 sequence (Q14524 whole entry): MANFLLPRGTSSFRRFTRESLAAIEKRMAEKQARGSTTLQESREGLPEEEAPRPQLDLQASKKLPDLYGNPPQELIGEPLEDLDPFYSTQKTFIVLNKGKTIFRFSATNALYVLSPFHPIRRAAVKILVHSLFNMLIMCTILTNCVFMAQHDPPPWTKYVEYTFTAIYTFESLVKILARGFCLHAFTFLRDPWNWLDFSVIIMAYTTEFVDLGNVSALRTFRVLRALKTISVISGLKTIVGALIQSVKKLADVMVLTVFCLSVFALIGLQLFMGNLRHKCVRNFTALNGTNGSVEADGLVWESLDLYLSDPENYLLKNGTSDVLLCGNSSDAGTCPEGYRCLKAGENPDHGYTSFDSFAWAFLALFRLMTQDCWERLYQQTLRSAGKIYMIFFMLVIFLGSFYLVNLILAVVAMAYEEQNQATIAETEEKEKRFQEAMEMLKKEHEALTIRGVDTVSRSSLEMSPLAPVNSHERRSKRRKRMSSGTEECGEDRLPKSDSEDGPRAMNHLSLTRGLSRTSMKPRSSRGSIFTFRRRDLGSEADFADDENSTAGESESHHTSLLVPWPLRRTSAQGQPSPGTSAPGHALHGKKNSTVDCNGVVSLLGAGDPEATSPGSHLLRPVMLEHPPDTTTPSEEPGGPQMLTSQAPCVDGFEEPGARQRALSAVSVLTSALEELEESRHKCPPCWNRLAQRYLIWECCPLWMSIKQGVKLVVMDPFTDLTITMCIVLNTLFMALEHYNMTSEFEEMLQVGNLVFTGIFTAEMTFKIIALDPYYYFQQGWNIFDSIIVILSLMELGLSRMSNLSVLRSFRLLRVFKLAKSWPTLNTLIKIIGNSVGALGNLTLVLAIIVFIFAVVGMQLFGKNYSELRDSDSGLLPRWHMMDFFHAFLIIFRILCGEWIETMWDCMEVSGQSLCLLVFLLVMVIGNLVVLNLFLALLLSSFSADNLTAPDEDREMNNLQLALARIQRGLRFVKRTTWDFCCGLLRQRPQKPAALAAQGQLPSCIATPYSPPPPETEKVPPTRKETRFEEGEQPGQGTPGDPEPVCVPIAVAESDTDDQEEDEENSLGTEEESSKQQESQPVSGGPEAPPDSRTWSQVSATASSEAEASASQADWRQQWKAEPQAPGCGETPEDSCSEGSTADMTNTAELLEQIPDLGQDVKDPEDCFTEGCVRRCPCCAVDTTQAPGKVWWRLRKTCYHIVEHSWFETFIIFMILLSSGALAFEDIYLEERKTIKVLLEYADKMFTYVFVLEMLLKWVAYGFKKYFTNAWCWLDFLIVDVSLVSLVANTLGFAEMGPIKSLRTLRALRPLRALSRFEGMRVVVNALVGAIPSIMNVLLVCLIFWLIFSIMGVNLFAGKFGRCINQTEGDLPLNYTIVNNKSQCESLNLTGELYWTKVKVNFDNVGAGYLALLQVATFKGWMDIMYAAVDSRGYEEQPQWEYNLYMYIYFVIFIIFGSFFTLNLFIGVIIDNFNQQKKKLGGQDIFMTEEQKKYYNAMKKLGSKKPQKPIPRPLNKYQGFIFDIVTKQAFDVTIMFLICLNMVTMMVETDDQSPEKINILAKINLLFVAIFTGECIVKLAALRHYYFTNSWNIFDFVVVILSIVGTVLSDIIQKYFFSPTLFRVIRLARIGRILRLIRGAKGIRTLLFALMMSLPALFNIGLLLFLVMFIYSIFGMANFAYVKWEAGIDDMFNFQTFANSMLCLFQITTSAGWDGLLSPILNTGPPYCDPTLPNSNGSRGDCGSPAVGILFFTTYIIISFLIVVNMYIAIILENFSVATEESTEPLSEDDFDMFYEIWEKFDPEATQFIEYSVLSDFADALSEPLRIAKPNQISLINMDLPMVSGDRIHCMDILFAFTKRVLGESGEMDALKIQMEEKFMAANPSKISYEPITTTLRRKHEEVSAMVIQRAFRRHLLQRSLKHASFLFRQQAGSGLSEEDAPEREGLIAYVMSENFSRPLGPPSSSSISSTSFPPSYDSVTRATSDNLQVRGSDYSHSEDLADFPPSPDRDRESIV
T2 sequence (Q14524 whole entry): as above

In the case of `Cc1nccn1CC1CCc2c(c3ccccc3n2C)C1=O` (stereo not shown) [ond, ondansetron], the “peak hNav1.5 Na+ current inhibition (result in words)” value (peak hNav1.5; no inhibition = no obvious concentration-dependent current block and/or no curve fitting performed, all sites) is reported as “no inhibition”, the “log IC50, peak hNav1.5 Na+ current inhibition” value (peak hNav1.5; site_platform s01_p1) is reported as “no inh” and the “Peak hNav1.5 Na+ current inhibition, Mean” value (peak hNav1.5; site_platform s01_p1, 1.00E-05 mol/L) is reported as 56.4%. For the same molecule, the “Peak hNav1.5 Na+ current inhibition, Mean” value (peak hNav1.5; site_platform s01_p1, 3.00E-07 mol/L) was 31.6%, the “log IC50, peak hNav1.5 Na+ current inhibition” value (peak hNav1.5; site_platform s02_p2) was “no inh” and the “Peak hNav1.5 Na+ current inhibition, Mean” value (peak hNav1.5; site_platform s02_p2, 1.00E-05 mol/L) was 9.4%. The “Peak hNav1.5 Na+ current inhibition, Mean” value (peak hNav1.5; site_platform s02_p2, 3.00E-07 mol/L) was 1.4%, the “log IC50, peak hNav1.5 Na+ current inhibition” value (peak hNav1.5; site_platform s04_p3) was “no inh” and the “Peak hNav1.5 Na+ current inhibition, Mean” value (peak hNav1.5; site_platform s04_p3, 1.00E-05 mol/L) was 19.5%. For the same molecule, the “Peak hNav1.5 Na+ current inhibition, Mean” value (peak hNav1.5; site_platform s04_p3, 3.00E-07 mol/L) was 4.4%, the “log IC50, peak hNav1.5 Na+ current inhibition” value (peak hNav1.5; site_platform s06_p4) was “no inh” and the “Peak hNav1.5 Na+ current inhibition, Mean” value (peak hNav1.5; [2]) was 19.0%. For the same molecule, the “Peak hNav1.5 Na+ current inhibition, Mean” value (peak hNav1.5; [3]) was 0.4%, the “log IC50, peak hNav1.5 Na+ current inhibition” value (peak hNav1.5; site_platform s07_p6) was “no inh” and the “Peak hNav1.5 Na+ current inhibition, Mean” value (peak hNav1.5; [4]) was 17.1%. The “Peak hNav1.5 Na+ current inhibition, Mean” value (peak hNav1.5; [5]) was 1.7%, the “log IC50, peak hNav1.5 inhibition” value (peak hNav1.5; site_platform s10_p3) was “no inh” and the “Peak hNav1.5 Na+ current inhibition, Mean” value (peak hNav1.5; site_platform s10_p3, 1.00E-05 mol/L) was 20.6%. The “Peak hNav1.5 Na+ current inhibition, Mean” value (peak hNav1.5; site_platform s10_p3, 3.00E-07 mol/L) was 0.1%, the “log IC50, peak hNav1.5 inhibition” value (peak hNav1.5; site_platform s11_p1) was “no inh” and the “Peak hNav1.5 Na+ current inhibition, Mean” value (peak hNav1.5; site_platform s11_p1, 1.00E-05 mol/L) was 15.2%. For the same molecule, the “Peak hNav1.5 Na+ current inhibition, Mean” value (peak hNav1.5; site_platform s11_p1, 3.00E-07 mol/L) was 6.1%, the “log IC50, peak hNav1.5 inhibition” value (peak hNav1.5; site_platform s12_p2) was “no inh” and the “Peak hNav1.5 Na+ current inhibition, Mean” value (peak hNav1.5; site_platform s12_p2, 1.00E-05 mol/L) was 12.2%. For the same molecule, the “Peak hNav1.5 Na+ current inhibition, Mean” value (peak hNav1.5; site_platform s12_p2, 3.00E-07 mol/L) was 3.0%, the “log IC50, peak hNav1.5 inhibition” value (peak hNav1.5; site_platform s13_p2) was “no inh” and the “Peak hNav1.5 Na+ current inhibition, Mean” value (peak hNav1.5; [6]) was 7.0%. For the same molecule, the “Peak hNav1.5 Na+ current inhibition, Mean” value (peak hNav1.5; [7]) was -3.4%, the “log IC50, peak hNav1.5 inhibition” value (peak hNav1.5; site_platform s14_p1) was “no inh” and the “Peak hNav1.5 Na+ current inhibition, Mean” value (peak hNav1.5; [8]) was 21.3%. For the same molecule, the “Peak hNav1.5 Na+ current inhibition, Mean” value (peak hNav1.5; [9]) was 3.9%, the “log IC50, peak hNav1.5 inhibition” value (peak hNav1.5; site_platform s15_p1) was “no inh” and the “Peak hNav1.5 Na+ current inhibition, Mean” value (peak hNav1.5; site_platform s15_p1, 1.00E-05 mol/L) was 43.9%. The “Peak hNav1.5 Na+ current inhibition, Mean” value (peak hNav1.5; site_platform s15_p1, 3.00E-07 mol/L) was 11.8%, the “log IC50, peak hNav1.5 inhibition” value (peak hNav1.5; site_platform s16_p3) was “no inh” and the “Peak hNav1.5 Na+ current inhibition, Mean” value (peak hNav1.5; site_platform s16_p3, 1.00E-05 mol/L) was 14.4%. The “Peak hNav1.5 Na+ current inhibition, Mean” value (peak hNav1.5; site_platform s16_p3, 3.00E-07 mol/L) was 2.8%, the “log IC50, peak hNav1.5 inhibition” value (peak hNav1.5; site_platform s17_p1) was “no inh” and the “Peak hNav1.5 Na+ current inhibition, Mean” value (peak hNav1.5; site_platform s17_p1, 1.00E-05 mol/L) was 33.4%. For the same molecule, the “Peak hNav1.5 Na+ current inhibition, Mean” value (peak hNav1.5; site_platform s17_p1, 3.00E-07 mol/L) was -17.0%, the “log IC50, peak hNav1.5 inhibition” value (peak hNav1.5; site_platform s18_p1) was “no inh” and the “Peak hNav1.5 Na+ current inhibition, Mean” value (peak hNav1.5; site_platform s18_p1, 1.00E-05 mol/L) was 29.7%. For the same molecule, the “Peak hNav1.5 Na+ current inhibition, Mean” value (peak hNav1.5; site_platform s18_p1, 3.00E-07 mol/L) was 27.5%, the “log IC50, peak hNav1.5 inhibition” value (peak hNav1.5; site_platform s19_p3) was “no inh” and the “Peak hNav1.5 Na+ current inhibition, Mean” value (peak hNav1.5; site_platform s19_p3, 1.00E-05 mol/L) was 24.0%. For the same molecule, the “Peak hNav1.5 Na+ current inhibition, Mean” value (peak hNav1.5; site_platform s19_p3, 3.00E-07 mol/L) was 3.5%, the “nH, Hill slope, late hNav1.5 inhibition” value (late hNav1.5; site_platform s06_p4) was 1.28 and the “Late hNav1.5 Na+ current inhibition, Mean” value (late hNav1.5; [2]) was 61.7%. The “Late hNav1.5 Na+ current inhibition, Mean” value (late hNav1.5; [3]) was 0.5%, the IC50 (late hNav1.5; site_platform s06_p4) was 6.92 µM and the “nH, Hill slope, late hNav1.5 inhibition” value (late hNav1.5; site_platform s07_p6) was 1.57. The “Late hNav1.5 Na+ current inhibition, Mean” value (late hNav1.5; [4]) was 47.6%, the “Late hNav1.5 Na+ current inhibition, Mean” value (late hNav1.5; [5]) was -14.8% and the IC50 (late hNav1.5; site_platform s07_p6) was 10.2 µM. The “log IC50, late hNav1.5 inhibition” value (late hNav1.5; site_platform s13_p2) was “no inh”, the “Late hNav1.5 Na+ current inhibition, Mean” value (late hNav1.5; [6]) was 20.9% and the “Late hNav1.5 Na+ current inhibition, Mean” value (late hNav1.5; [7]) was 9.2%. For the same molecule, the “log IC50, late hNav1.5 inhibition” value (late hNav1.5; site_platform s14_p1) was “no inh”, the “Late hNav1.5 Na+ current inhibition, Mean” value (late hNav1.5; [8]) was 40.9% and the “Late hNav1.5 Na+ current inhibition, Mean” value (late hNav1.5; [9]) was 20.2%. For the same molecule, the “TdP Risk Category” value [1] was “Intermediate”, the IC50 (hCav1.2; site s04_p3) was 155 µM and the IC50 (hCav1.2; site s14_p1) was 28.8 µM. For the same molecule, the IC50 (hCav1.2; site s16_p3) was 6.61 µM.
